# Results: patent publication US10544143B2, “4-azaindole compounds” (BRISTOL-MYERS SQUIBB COMPANY, priority 2017, dated 2020)
# What was measured:
# [1] = target: human TLR8 (Homo sapiens (Human), UniProt Q9NR97); test: TLR8 inhibition reporter assay (HEK-Blue SEAP); settings: read-out: TLR8 IC50; HEK-Blue cells overexpressing human TLR8, R848 15.9 μM stimulation, SEAP reporter;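 also: SEAP driven by IFN-β minimal promoter carrying NF-κB and AP-1 sites, compounds dosed 0.05 nM to 50 µM for 22 h, inhibition scaled between agonist-plus-DMSO and reference-inhibitor wells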
# [2] = target: human TLR7 (Homo sapiens (Human), UniProt Q9NYK1); test: TLR7 inhibition reporter assay (HEK-Blue SEAP); type: cell-based; settings: HEK-Blue cells overexpressing human TLR7, gardiquimod 7.5 μM stimulation, SEAP reporter
# [3] = target: human TLR9 (Homo sapiens (Human), UniProt Q9NR96); test: TLR9 inhibition reporter assay (HEK-Blue SEAP); settings: read-out: TLR9 IC50; HEK-Blue cells overexpressing human TLR9, ODN2006 5 nM stimulation, SEAP reporter;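 also: SEAP driven by an IFN-β minimal promoter with NF-κB and AP-1 sites, read after 22 h, compounds dosed 0.05 nM–50 µM, inhibition scaled between agonist plus DMSO and reference-inhibitor wells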
# Chain of human TLR9 (Q9NR96 26-1032): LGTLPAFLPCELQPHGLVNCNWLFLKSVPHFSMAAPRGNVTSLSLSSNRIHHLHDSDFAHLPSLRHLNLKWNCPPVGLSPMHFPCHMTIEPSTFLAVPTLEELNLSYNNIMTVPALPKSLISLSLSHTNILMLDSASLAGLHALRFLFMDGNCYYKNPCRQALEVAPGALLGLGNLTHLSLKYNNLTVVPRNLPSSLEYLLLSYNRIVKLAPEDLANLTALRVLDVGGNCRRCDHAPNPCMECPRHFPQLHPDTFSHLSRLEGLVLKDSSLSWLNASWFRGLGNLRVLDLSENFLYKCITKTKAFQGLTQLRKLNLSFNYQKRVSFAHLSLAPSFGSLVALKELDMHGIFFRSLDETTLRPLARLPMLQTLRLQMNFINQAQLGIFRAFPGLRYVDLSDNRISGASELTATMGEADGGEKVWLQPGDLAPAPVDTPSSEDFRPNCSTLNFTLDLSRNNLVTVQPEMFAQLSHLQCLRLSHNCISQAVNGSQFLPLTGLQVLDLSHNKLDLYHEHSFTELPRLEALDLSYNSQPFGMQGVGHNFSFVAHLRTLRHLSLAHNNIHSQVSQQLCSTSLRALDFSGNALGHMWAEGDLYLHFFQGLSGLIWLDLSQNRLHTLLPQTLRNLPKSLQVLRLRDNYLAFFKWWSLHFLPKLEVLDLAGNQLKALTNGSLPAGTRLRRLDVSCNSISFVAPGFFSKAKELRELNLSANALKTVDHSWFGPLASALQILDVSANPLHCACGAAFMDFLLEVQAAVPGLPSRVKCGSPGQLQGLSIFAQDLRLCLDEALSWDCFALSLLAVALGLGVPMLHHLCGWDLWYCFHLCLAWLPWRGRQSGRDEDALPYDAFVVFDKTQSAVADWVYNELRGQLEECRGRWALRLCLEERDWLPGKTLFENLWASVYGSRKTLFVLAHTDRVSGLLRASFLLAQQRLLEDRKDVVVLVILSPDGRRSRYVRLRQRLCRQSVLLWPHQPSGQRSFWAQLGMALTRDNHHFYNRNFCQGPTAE
# Chain of human TLR8 (Q9NR97 27-1041): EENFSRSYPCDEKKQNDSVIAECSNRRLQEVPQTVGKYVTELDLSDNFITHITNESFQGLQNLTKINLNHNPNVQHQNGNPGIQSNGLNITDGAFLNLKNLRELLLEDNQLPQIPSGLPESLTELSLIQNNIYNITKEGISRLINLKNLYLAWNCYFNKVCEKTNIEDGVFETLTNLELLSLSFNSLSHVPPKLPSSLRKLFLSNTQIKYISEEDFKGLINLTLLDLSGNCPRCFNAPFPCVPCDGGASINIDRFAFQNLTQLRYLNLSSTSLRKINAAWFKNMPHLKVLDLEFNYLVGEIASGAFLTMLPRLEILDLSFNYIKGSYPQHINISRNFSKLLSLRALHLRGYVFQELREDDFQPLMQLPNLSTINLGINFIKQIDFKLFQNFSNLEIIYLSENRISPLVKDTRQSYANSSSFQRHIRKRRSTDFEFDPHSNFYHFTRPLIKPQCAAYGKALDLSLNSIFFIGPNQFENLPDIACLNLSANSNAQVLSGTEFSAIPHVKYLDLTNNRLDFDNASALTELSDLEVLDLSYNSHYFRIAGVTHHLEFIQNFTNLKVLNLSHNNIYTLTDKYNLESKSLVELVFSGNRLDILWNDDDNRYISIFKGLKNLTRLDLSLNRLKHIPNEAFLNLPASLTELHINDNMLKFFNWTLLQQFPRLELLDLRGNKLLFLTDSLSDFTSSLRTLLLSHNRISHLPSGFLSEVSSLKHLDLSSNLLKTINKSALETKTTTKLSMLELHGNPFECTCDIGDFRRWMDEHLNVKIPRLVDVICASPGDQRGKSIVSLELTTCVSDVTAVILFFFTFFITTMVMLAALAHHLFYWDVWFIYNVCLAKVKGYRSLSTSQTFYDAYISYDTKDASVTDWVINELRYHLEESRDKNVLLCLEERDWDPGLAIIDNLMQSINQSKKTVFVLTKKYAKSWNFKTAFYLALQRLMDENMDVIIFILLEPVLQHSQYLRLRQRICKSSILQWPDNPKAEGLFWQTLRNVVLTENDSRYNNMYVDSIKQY
# Chain of human TLR7 (Q9NYK1 27-1049): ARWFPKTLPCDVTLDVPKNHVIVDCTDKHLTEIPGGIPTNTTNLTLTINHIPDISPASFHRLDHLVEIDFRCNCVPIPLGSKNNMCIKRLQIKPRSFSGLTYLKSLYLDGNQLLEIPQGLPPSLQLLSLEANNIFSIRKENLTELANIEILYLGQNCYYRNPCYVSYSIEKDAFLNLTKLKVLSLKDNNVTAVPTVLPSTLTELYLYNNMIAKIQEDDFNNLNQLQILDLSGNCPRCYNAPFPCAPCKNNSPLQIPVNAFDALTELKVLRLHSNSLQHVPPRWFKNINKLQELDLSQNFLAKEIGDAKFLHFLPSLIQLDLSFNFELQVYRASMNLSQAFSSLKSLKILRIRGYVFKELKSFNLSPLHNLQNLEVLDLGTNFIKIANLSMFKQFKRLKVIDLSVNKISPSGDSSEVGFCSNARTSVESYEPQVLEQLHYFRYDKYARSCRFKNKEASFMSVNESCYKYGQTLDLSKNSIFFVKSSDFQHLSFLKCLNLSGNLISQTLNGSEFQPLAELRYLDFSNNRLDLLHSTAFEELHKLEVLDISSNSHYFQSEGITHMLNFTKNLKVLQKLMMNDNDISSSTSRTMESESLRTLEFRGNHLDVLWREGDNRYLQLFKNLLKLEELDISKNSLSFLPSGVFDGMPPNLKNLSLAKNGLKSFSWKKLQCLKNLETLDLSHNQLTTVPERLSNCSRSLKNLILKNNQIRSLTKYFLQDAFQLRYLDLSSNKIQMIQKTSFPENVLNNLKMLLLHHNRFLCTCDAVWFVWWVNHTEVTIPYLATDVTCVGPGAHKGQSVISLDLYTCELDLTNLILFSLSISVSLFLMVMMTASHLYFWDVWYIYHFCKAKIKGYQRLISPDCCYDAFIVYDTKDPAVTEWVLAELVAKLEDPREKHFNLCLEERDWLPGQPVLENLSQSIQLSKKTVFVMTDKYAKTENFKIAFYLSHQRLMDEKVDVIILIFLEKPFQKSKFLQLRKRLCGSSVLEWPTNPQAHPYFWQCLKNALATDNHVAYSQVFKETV
Compound,IC50 [1] [nM],IC50 [2] [nM],IC50 [3] [nM]
CC(C)c1c(-c2cn(C)c3ncccc23)[nH]c2ccc(N3CCC(N(CC(=O)N(C)C)CC(=O)N(C)C)CC3)nc12 [Example 54],2.8,2.9,10400
Cc1c(-c2[nH]c3ccc(N4CCC(N(C)Cc5ncccn5)CC4)nc3c2C(C)C)cn2ncnc2c1C [Example 60],5.9,5.6,20200
Cc1c(-c2[nH]c3ccc(N4CCC(N(C)Cc5ncnn5C)CC4)nc3c2C(C)C)cn2ncnc2c1C [Example 63],4,7.4,42400
COc1ncnc(OC)c1CNC1CCN(c2ccc3[nH]c(-c4cn5ncnc5c(C)c4C)c(C(C)C)c3n2)CC1 [Example 69],1310,1310,25800
COc1ncnc(OC)c1CN(Cc1c(OC)ncnc1OC)C1CCN(c2ccc3[nH]c(-c4cn5ncnc5c(C)c4C)c(C(C)C)c3n2)CC1 [Example 71],31,99,3900
Cc1c(-c2[nH]c3ccc(N4CCC(N(Cc5cn(C)nn5)Cc5cn(C)nn5)CC4)nc3c2C(C)C)cn2ncnc2c1C [Example 73],5.7,29,24900
Cc1nccc(CN(Cc2ccnc(C)n2)C2CCN(c3ccc4[nH]c(-c5cn6ncnc6c(C)c5C)c(C(C)C)c4n3)CC2)n1 [Example 74],2560,2470,> 50000
COc1ncc(CN(Cc2cnc(OC)nc2)C2CCN(c3ccc4[nH]c(-c5cn6ncnc6c(C)c5C)c(C(C)C)c4n3)CC2)cn1 [Example 75],9.8,18,> 50000
Cc1c(-c2[nH]c3ccc(N4CCC(N(Cc5ncnn5C)Cc5ncnn5C)CC4)nc3c2C(C)C)cn2ncnc2c1C [Example 76],15,34,> 50000
Cc1c(-c2[nH]c3ccc(N4CCC(N(C)Cc5ncccn5)CC4)nc3c2C(C)C)cn2ncnc2c1C [Example 78],10,3.7,3170
CC(C)c1c(-c2cc(CO)c3ncnn3c2)[nH]c2ccc(N3CCC(N)CC3)nc12 [Example 79],355,373,9720
CC(C)c1c(-c2cc(CO)c3ncnn3c2)[nH]c2ccc(N3CCC(NCC#N)CC3)nc12 [Example 83],6.9,3.6,5440
CC(C)c1c(-c2cc(CO)c3ncnn3c2)[nH]c2ccc(N3CCC(NCC(=O)N(C)C)CC3)nc12 [Example 84],> 3120,2200,> 50000
CC(C)c1c(-c2cc(CO)c3ncnn3c2)[nH]c2ccc(N3CCC(NCC(=O)N(C)C)CC3)nc12 [Example 85],5.8,1.8,5180
Cc1c(-c2[nH]c3ccc(N4CCCC(NC5COC5)C4)nc3c2C(C)C)cn2ncnc2c1C (stereo not drawn) [Example 86],2.9,7.5,> 50000
Cc1cc(-c2[nH]c3ccc(N4CCNCC4)nc3c2C(C)C)cn2ncnc12 [Example 88],91,68,3600
COc1cc(-c2[nH]c3ccc(N4CCN(C(=O)CN(C)C)CC4)nc3c2C(C)C)cn2ncnc12 [Example 90],4.2,0.57,5000

# Stronger by IC50 [1], values ahead:
IC50 [1] [nM],IC50 [2] [nM],IC50 [3] [nM],Compound
0.23,0.62,1990,CC(C)c1c(-c2cn(C)c3ncccc23)[nH]c2ccc(N3CCC(NCCS(C)(=O)=O)CC3)nc12 [Example 53]
0.39,2.1,3340,Cc1c(-c2[nH]c3ccc(N4CCC(N(C)C5CCOCC5)CC4)nc3c2C(C)C)cn2ncnc2c1C [Example 55]
1.1,2,6340,Cc1c(-c2[nH]c3ccc(N4CCC(NCc5csnn5)CC4)nc3c2C(C)C)cn2ncnc2c1C [Example 56]
1.3,7.4,5070,Cc1c(-c2[nH]c3ccc(N4CCC(NC5CCC5)CC4)nc3c2C(C)C)cn2ncnc2c1C [Example 57]
0.72,1.3,1970,Cc1c(-c2[nH]c3ccc(N4CCC(N(C)CC5CC5)CC4)nc3c2C(C)C)cn2ncnc2c1C [Example 58]
1.1,1.3,2380,Cc1c(-c2[nH]c3ccc(N4CCC(N(C)C5CCC5)CC4)nc3c2C(C)C)cn2ncnc2c1C [Example 59]
1.8,4.4,2410,COc1ncnc(OC)c1CN(C)C1CCN(c2ccc3[nH]c(-c4cn5ncnc5c(C)c4C)c(C(C)C)c3n2)CC1 [Example 61]
1.5,3.8,11500,Cc1c(-c2[nH]c3ccc(N4CCC(N(C)Cc5ccnn5C)CC4)nc3c2C(C)C)cn2ncnc2c1C [Example 62]
1.6,3.8,5080,Cc1ncc(CN(C)C2CCN(c3ccc4[nH]c(-c5cn6ncnc6c(C)c5C)c(C(C)C)c4n3)CC2)cn1 [Example 64]
1.3,1.9,25100,Cc1c(-c2[nH]c3ccc(N4CCC(N(C)C5COC5)CC4)nc3c2C(C)C)cn2ncnc2c1C [Example 65]
0.98,1.4,3870,CCN(C)C1CCN(c2ccc3[nH]c(-c4cn5ncnc5c(C)c4C)c(C(C)C)c3n2)CC1 [Example 66]
0.42,0.98,963,COc1ncc(CN(C)C2CCN(c3ccc4[nH]c(-c5cn6ncnc6c(C)c5C)c(C(C)C)c4n3)CC2)cn1 [Example 67]
0.79,1.4,6300,Cc1c(-c2[nH]c3ccc(N4CCC(N(C)Cc5cn(C)nn5)CC4)nc3c2C(C)C)cn2ncnc2c1C [Example 68]
1.2,2.3,2970,CCN(CC)C1CCN(c2ccc3[nH]c(-c4cn5ncnc5c(C)c4C)c(C(C)C)c3n2)CC1 [Example 70]
0.9,2.9,3420,COc1ncc(CNC2CCN(c3ccc4[nH]c(-c5cn6ncnc6c(C)c5C)c(C(C)C)c4n3)CC2)cn1 [Example 72]
2,4.8,11600,Cc1c(-c2[nH]c3ccc(N4CCC(N(C)Cc5csnn5)CC4)nc3c2C(C)C)cn2ncnc2c1C [Example 77]
1.6,1.3,4560,CC(C)c1c(-c2cc(CO)c3ncnn3c2)[nH]c2ccc(N3CCC(NC4CCOCC4)CC3)nc12 [Example 80]
0.95,1.3,20100,CC(C)c1c(-c2cc(CO)c3ncnn3c2)[nH]c2ccc(N3CCC(NC4COC4)CC3)nc12 [Example 81]
0.41,0.77,6380,CC(C)c1c(-c2cc(CO)c3ncnn3c2)[nH]c2ccc(N3CCC(NCC4(C)COC4)CC3)nc12 [Example 82]
0.58,3.5,> 50000,Cc1c(-c2[nH]c3ccc(N4CCCC(NCC5(S(C)(=O)=O)CC5)C4)nc3c2C(C)C)cn2ncnc2c1C (stereo not drawn) [Example 87]
0.59,0.51,3260,COc1cc(-c2[nH]c3ccc(N4CCNCC4)nc3c2C(C)C)cn2ncnc12 [Example 89]
